The values that follow come from ChEMBL document CHEMBL1201862, “PubChem BioAssay data set” (2004).

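A five-concentration, 48-hour dose response in 96-well plates underlies each endpoint, interpolated linearly between surrounding concentrations. GI50 is the concentration that inhibits growth by half.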 Activity calls are given as the source filed them. No stated cut-off is given here; in the data, active = GI50 up to about 1.1 µM and inactive = higher.

Common to all, as to assay: NCI anticancer screen, dose series, 48 h
The subject of assay [1] is A498.
In assay [2] the test system is A549.
Assay [3] relates to ACHN.
Assay [4] concerns CCRF-CEM.
Assay [5] has as its system HCT-116.
The subject of assay [6] is HOP-92.
The test system of assay [7] is IGROV-1.
Assay [8] has as its system KM12.
Assay [9] concerns MDA-N.
The test system of assay [10] is NCI-H226.
The subject of assay [11] is NCI-H460.
Assay [12] relates to OVCAR-3.
Assay [13] concerns OVCAR-8.
Assay [14] has as its system RXF 393.
Assay [15] has as its system SF-268.
For assay [16], the system named is SK-MEL-28.
Assay [17] deals with SNB-19.
The test system of assay [18] is TK-10.
Assay [19] has as its system HOP-62.
Assay [20] concerns Hs-578T.

`O=C(/C=C/c1ccc(O)c(O)c1)OCCc1cccc2ccccc12`: the GI50 in assay [1] is 11.5 µM (inactive); in assay [2], 4.54 µM (inactive); in assay [3], 3.78 µM (inactive); in [4], 0.501 µM (active); in assay [5] it was 3.24 µM (inactive); in assay [6], 10.6 µM (inactive). Also, the GI50 is 2.76 µM (inactive) in assay [7]; 3.55 µM (inactive) in [8]; 1.87 µM (inactive) in [9]; 22 µM (inactive) in [10]; 12.1 µM (inactive) in assay [11]; 2.32 µM (inactive) in assay [12]. The GI50 in [13] was 5.07 µM (inactive); in [14], 9.44 µM (inactive); in assay [15], 4.76 µM (inactive); in assay [16], 4.15 µM (inactive); in assay [17], 10.6 µM (inactive); in [18], 3.4 µM (inactive).
On to `COc1ccc(N[S+]([O-])c2ccc(OC)cc2)cc1` (stereo unspecified), for which the GI50 in assay [2] is 33.6 µM (inactive); in assay [3] it was 95.1 µM (inactive); in [4], 45.5 µM (inactive); in assay [5], 41.2 µM (inactive); in assay [19], 61.8 µM (inactive); in [20], 34 µM (inactive). The GI50 is 5.53 µM (inactive) in assay [7]; 7.8 µM (inactive) in assay [8]; 41.3 µM (inactive) in assay [9]; 55.5 µM (inactive) in assay [10]; 29 µM (inactive) in [11]; > 100 µM (inactive) in assay [12]. Further, the GI50 is 82.2 µM (inactive) in assay [13]; 6.75 µM (inactive) in assay [15]; > 100 µM (inactive) in assay [16]; 60.1 µM (inactive) in assay [17]; > 100 µM (inactive) in [18].
For `C=C(CCC(C)C1CCC2C3=C(C(=O)CC21C)C1(C)CCC(=O)[C@@H](C)C1CC3=O)C(C)C(=O)O` (stereo partly specified), the GI50 was > 100 µM (inactive) in [1]; > 100 µM (inactive) in assay [2]; 29.9 µM (inactive) in assay [3]; 22.2 µM (inactive) in [4]; 50.9 µM (inactive) in assay [5]; 35.3 µM (inactive) in assay [19]. Further, the GI50 in assay [6] was 30.8 µM (inactive); in [20] it was > 100 µM (inactive); in assay [7] it was 42.6 µM (inactive); in assay [8], 85.5 µM (inactive); in [10], > 100 µM (inactive); in [11], 34 µM (inactive). Moreover, the GI50 in assay [12] was 60.1 µM (inactive); in assay [13], 61 µM (inactive); in [14] it was 18 µM (inactive); in [15] it was > 100 µM (inactive); in [16] it was > 100 µM (inactive); in [17], > 100 µM (inactive). In addition, in assay [18], the GI50 is > 100 µM (inactive).
Turning to `COC(=O)C1=C(O)C(C(=O)OC)[C@]2(O)[C@@H](C(=O)OC)[C@H]1[C@H](C)[C@@H](c1ccccc1)[C@@H]2C(=O)OC` (stereo partly specified), the GI50 in assay [2] was 56.4 µM (inactive); in assay [3], 91.8 µM (inactive); in assay [4], 23.2 µM (inactive); in assay [5] it was 60.3 µM (inactive); in [19] it was > 100 µM (inactive); in assay [7], 16.8 µM (inactive). The GI50 in assay [8] was > 100 µM (inactive); in assay [9], 29.2 µM (inactive); in [10], 78.9 µM (inactive); in assay [11], 69.2 µM (inactive); in assay [12] it was 54 µM (inactive); in assay [13], 54.2 µM (inactive). Also, the GI50 in assay [14] is > 100 µM (inactive); in [15], 70.8 µM (inactive); in assay [16], > 100 µM (inactive); in [17], > 100 µM (inactive); in assay [18] it was > 100 µM (inactive).
As for `Cc1ccc(-n2c(C)n[nH]c2=O)cc1`, the GI50 in assay [2], in assay [3], in assay [4], in assay [5], in assay [19] and in [6] was > 100 µM (inactive) each time. The GI50 in [7], in assay [8], in assay [9], in assay [12], in assay [13] and in [14] was > 100 µM (inactive) in each case. Besides, the GI50 in assay [15], in [16], in [17] and in assay [18] was > 100 µM (inactive) throughout.
`O=c1c2cc(Br)ccc2oc2ccc(Br)cc12`: the GI50 in assay [1] was > 100 µM (inactive); in [2] it was > 100 µM (inactive); in assay [3] it was > 100 µM (inactive); in assay [4] it was > 100 µM (inactive); in [5], 82.2 µM (inactive); in assay [6] it was > 100 µM (inactive). In addition, the GI50 in assay [7] is > 100 µM (inactive); in assay [8], > 100 µM (inactive); in assay [9], > 100 µM (inactive); in [10], > 100 µM (inactive); in assay [11], > 100 µM (inactive); in assay [12] it was 71.8 µM (inactive). In addition, the GI50 in assay [13], in [14], in assay [15], in [16], in assay [17] and in assay [18] was > 100 µM (inactive) each time.
Regarding `CCCCCCCCCCCCCCCCP(=O)(O)OP(=O)(O)OCC1OC(n2cnc3c(N)ncnc32)C(O)C1O` (stereo unspecified), the GI50 in [2] was 33.5 µM (inactive); in [3], 26.7 µM (inactive); in assay [4], 29.6 µM (inactive); in assay [5], 21.5 µM (inactive); in [19], 19.5 µM (inactive); in assay [6], 21.4 µM (inactive). Also, the GI50 is 26.4 µM (inactive) in assay [20]; 16.3 µM (inactive) in [7]; 26.1 µM (inactive) in assay [8]; 43.4 µM (inactive) in assay [9]; 20.9 µM (inactive) in assay [10]; 24.5 µM (inactive) in assay [11]. In addition, the GI50 is 32.2 µM (inactive) in assay [12]; 22 µM (inactive) in assay [13]; 30.3 µM (inactive) in assay [15]; 35.7 µM (inactive) in assay [16]; 20 µM (inactive) in assay [17]; 15.6 µM (inactive) in [18].
Consider `COc1c2occc2cc2ccc(=O)oc12` [METHOXSALEN], for which the GI50 in [1], in [2], in assay [3], in assay [4], in assay [5] and in assay [19] was > 100 µM (inactive) each time. Moreover, the GI50 in [6] is > 100 µM (inactive); in assay [9] it was > 100 µM (inactive); in assay [11] it was 62.7 µM (inactive); in [12] it was > 100 µM (inactive); in assay [16] it was > 100 µM (inactive); in [17], > 100 µM (inactive). Besides, in assay [18], the GI50 is > 100 µM (inactive).
